Reference: patent US20250382344A1, “Soluble GLP1/GIP/NPY2 Receptor Triple Agonists” (Boehringer Ingelheim International GmH, priority 2024, published 2025)
Like-named read-outs stand apart in the source and are kept apart here.

Legend:
hGIPR = target: T1, hGIPR (Homo sapiens, UniProt P48546); test: hGIPR CreLuc assay in 0.5% and 100% plasma (CHO CRE-luciferase reporter cells); assay type: cell-based
T1 construct: expressed in transfected cells; host or cells: CHO CRE-luciferase reporter cells
T1 sequence (P48546 22-466): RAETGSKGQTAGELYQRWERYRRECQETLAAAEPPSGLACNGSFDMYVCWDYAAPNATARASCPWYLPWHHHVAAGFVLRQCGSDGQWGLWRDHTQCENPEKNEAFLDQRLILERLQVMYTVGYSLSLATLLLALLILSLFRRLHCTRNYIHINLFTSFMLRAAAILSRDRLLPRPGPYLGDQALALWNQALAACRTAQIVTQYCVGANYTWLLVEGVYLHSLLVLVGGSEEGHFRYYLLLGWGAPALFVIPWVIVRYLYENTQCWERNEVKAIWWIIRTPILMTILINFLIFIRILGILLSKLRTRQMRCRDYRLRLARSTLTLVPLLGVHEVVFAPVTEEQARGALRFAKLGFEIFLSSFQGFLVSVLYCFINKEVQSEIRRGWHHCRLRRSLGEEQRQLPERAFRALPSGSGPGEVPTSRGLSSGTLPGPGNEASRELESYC

[1] = Solubility in 0.1 M phosphate buffer at pH 7; assay type: physicochemical; settings: 0.1 M phosphate buffer at pH 7, 10 mg/mL final peptide concentration, shaking 2 hours at room temperature, peptides as TFA-salts, measured sample pH 6.5-7.0; for solubility: read-out: Solubility
[2] = 0.5% human plasma, read-out: hGIPR 0.5% hP
[3] = 100% human plasma, read-out: hGIPR 100% hP

EC50 (hGIPR; [2]) [nM] | solubility at 2 h [1] [µg/mL] | EC50 (hGIPR; [3]) [nM] | solubility [1] [µg/mL] | Compound
0.7 | 8900 | – | – | CC[C@H](C)[C@H](NC(=O)[C@H](CC(C)C)NC(=O)[C@H](Cc1c[nH]cn1)NC(=O)[C@H](CCCNC(=N)N)NC(=O)[C@@H](NC(=O)[C@H](Cc1ccccc1)NC(=O)[C@H](C)NC(=O)C(C)(C)NC(=O)[C@H](CCC(N)=O)NC(=O)[C@H](C)NC(=O)[C@H](CCC(N)=O)NC(=O)[C@H](CCC(=O)O)NC(=O)[C@H](CC(=O)O)NC(=O)[C@H](CC(C)C)NC(=O)C(C)(C)NC(=O)[C@@H](NC(=O)[C@H](CO)NC(=O)[C@H](Cc1ccc(O)cc1)NC(=O)[C@H](CC(=O)O)NC(=O)[C@H](CO)NC(=O)[C@@H](NC(=O)[C@H](Cc1ccccc1)NC(=O)[C@@H](NC(=O)CNC(=O)[C@H](CCC(=O)O)NC(=O)C(C)(C)NC(=O)[C@@H](N)Cc1ccc(O)cc1)[C@@H](C)O)[C@@H](C)O)[C@@H](C)CC)C(C)C)C(=O)N[C@@H](CC(N)=O)C(=O)N[C@@H](CCCCNC(=O)[C@@H](N)CCCCNC(=O)[C@@H](N)CCCCNC(=O)CC[C@H](NC(=O)CC[C@H](NC(=O)CC[C@H](NC(=O)CC[C@H](NC(=O)CC[C@H](NC(=O)CCCCCCCCCCCCCCCCCCC(=O)O)C(=O)O)C(=O)O)C(=O)O)C(=O)O)C(=O)O)C(=O)NC(C)(C)C(=O)N[C@H](C(=O)N[C@@H](CCCNC(=N)N)C(=O)N[C@@H](CCC(N)=O)C(=O)N[C@@H](CCCNC(=N)N)C(=O)N[C@@H](Cc1ccc(O)cc1)C(N)=O)[C@@H](C)O [Compound 155, Y-Aib-E-G-T-F-T-S-D-Y-S-I-Aib-L-D-E-Q-A-Q-Aib-A-F-V-R-H-L-I-N-K(1,3)-Aib-T-R-Q-R-Y-NH2.C20DA-gGlu-gGlu-gGlu-gGlu-gGlu-eLys-eLys(1,2)]
0.8 | – | 14.4 | 2200 | CC[C@H](C)[C@H](NC(=O)[C@H](CC(C)C)NC(=O)[C@H](Cc1c[nH]cn1)NC(=O)[C@H](CCCNC(=N)N)NC(=O)[C@@H](NC(=O)[C@H](Cc1ccccc1)NC(=O)[C@H](C)NC(=O)C(C)(C)NC(=O)[C@H](CCC(N)=O)NC(=O)[C@H](CCCNC(=N)N)NC(=O)[C@H](CCC(N)=O)NC(=O)[C@H](CCCCN)NC(=O)[C@H](CCC(=O)O)NC(=O)[C@H](CC(C)C)NC(=O)C(C)(C)NC(=O)[C@@H](NC(=O)[C@H](CO)NC(=O)[C@H](Cc1ccc(O)cc1)NC(=O)[C@H](CC(=O)O)NC(=O)[C@H](CO)NC(=O)[C@@H](NC(=O)[C@H](Cc1ccccc1)NC(=O)[C@@H](NC(=O)CNC(=O)[C@H](CCC(=O)O)NC(=O)C(C)(C)NC(=O)[C@@H](N)Cc1ccc(O)cc1)[C@@H](C)O)[C@@H](C)O)[C@@H](C)CC)C(C)C)C(=O)N[C@@H](CC(N)=O)C(=O)N[C@@H](CCCCNC(=O)[C@@H](N)CCCCNC(=O)CC[C@H](NC(=O)CC[C@H](NC(=O)CC[C@H](NC(=O)CC[C@H](NC(=O)CC[C@H](NC(=O)CC[C@H](NC(=O)CCCCCCCCCCCCCCCCC(=O)O)C(=O)O)C(=O)O)C(=O)O)C(=O)O)C(=O)O)C(=O)O)C(=O)NC(C)(C)C(=O)N[C@H](C(=O)N[C@@H](CCCNC(=N)N)C(=O)N[C@@H](CCC(N)=O)C(=O)N[C@@H](CCCNC(=N)N)C(=O)N[C@@H](Cc1ccc(O)cc1)C(N)=O)[C@@H](C)O [Compound 91, Y-Aib-E-G-T-F-T-S-D-Y-S-I-Aib-L-E-K-Q-R-Q-Aib-A-F-V-R-H-L-I-N-K(1,3)-Aib-T-R-Q-R-Y-NH2.C18DA-gGlu-gGlu-gGlu-gGlu-gGlu-Glu-eLys(1,2)]
0.4 | 3700 | – | – | CC[C@H](C)[C@H](NC(=O)[C@H](CC(C)C)NC(=O)[C@H](Cc1c[nH]cn1)NC(=O)[C@H](CCCNC(=N)N)NC(=O)[C@@H](NC(=O)[C@H](Cc1ccccc1)NC(=O)[C@H](C)NC(=O)[C@H](C)NC(=O)[C@H](CCC(N)=O)NC(=O)[C@H](C)NC(=O)[C@H](CCC(N)=O)NC(=O)[C@H](CCCCN)NC(=O)[C@H](CCC(=O)O)NC(=O)[C@H](CC(C)C)NC(=O)C(C)(C)NC(=O)[C@@H](NC(=O)[C@H](CO)NC(=O)[C@H](Cc1ccc(O)cc1)NC(=O)[C@H](CC(=O)O)NC(=O)[C@H](CO)NC(=O)[C@@H](NC(=O)[C@H](Cc1ccccc1)NC(=O)[C@@H](NC(=O)CNC(=O)[C@H](CCC(=O)O)NC(=O)C(C)(C)NC(=O)[C@@H](N)Cc1ccc(O)cc1)[C@@H](C)O)[C@@H](C)O)[C@@H](C)CC)C(C)C)C(=O)N[C@@H](CC(N)=O)C(=O)N[C@@H](CCCCNC(=O)[C@@H](N)CCCCNC(=O)CC[C@H](NC(=O)CC[C@H](NC(=O)CC[C@H](NC(=O)CC[C@H](NC(=O)CC[C@H](NC(=O)CC[C@H](NC(=O)CCCCCCCCCCCCCCCCC(=O)O)C(=O)O)C(=O)O)C(=O)O)C(=O)O)C(=O)O)C(=O)O)C(=O)NC(C)(C)C(=O)N[C@H](C(=O)N[C@@H](CCCNC(=N)N)C(=O)N[C@@H](CCC(N)=O)C(=O)N[C@@H](CCCNC(=N)N)C(=O)N[C@@H](Cc1ccc(O)cc1)C(N)=O)[C@@H](C)O [Compound 61, Y-Aib-E-G-T-F-T-S-D-Y-S-I-Aib-L-E-K-Q-A-Q-A-A-F-V-R-H-L-I-N-K(1,3)-Aib-T-R-Q-R-Y-NH2.C18DA-gGlu-gGlu-gGlu-gGlu-gGlu-gGlu-eLys(1,2)]
0.5 | 4300 | 11.5 | – | CC[C@H](C)[C@H](NC(=O)[C@H](CC(C)C)NC(=O)[C@H](Cc1c[nH]cn1)NC(=O)[C@H](CCCNC(=N)N)NC(=O)[C@@H](NC(=O)[C@H](Cc1ccccc1)NC(=O)[C@H](C)NC(=O)C(C)(C)NC(=O)[C@H](CCC(N)=O)NC(=O)[C@H](C)NC(=O)[C@H](CCC(N)=O)NC(=O)[C@H](CCCCN)NC(=O)[C@H](CCC(=O)O)NC(=O)[C@H](CC(C)C)NC(=O)C(C)(C)NC(=O)[C@@H](NC(=O)[C@H](CO)NC(=O)[C@H](Cc1ccc(O)cc1)NC(=O)[C@H](CC(=O)O)NC(=O)[C@H](CO)NC(=O)[C@@H](NC(=O)[C@H](Cc1ccccc1)NC(=O)[C@@H](NC(=O)CNC(=O)[C@H](CCC(=O)O)NC(=O)C(C)(C)NC(=O)[C@@H](N)Cc1ccc(O)cc1)[C@@H](C)O)[C@@H](C)O)[C@@H](C)CC)C(C)C)C(=O)N[C@@H](CC(N)=O)C(=O)N[C@@H](CCCCNC(=O)[C@@H](N)CCCCNC(=O)CC[C@H](NC(=O)CC[C@H](NC(=O)CC[C@H](NC(=O)CC[C@H](NC(=O)CC[C@H](NC(=O)CC[C@H](NC(=O)[C@H]1CC[C@H](CNC(=O)CCCCCCCCCCCCCCCCC(=O)O)CC1)C(=O)O)C(=O)O)C(=O)O)C(=O)O)C(=O)O)C(=O)O)C(=O)NC(C)(C)C(=O)N[C@H](C(=O)N[C@@H](CCCNC(=N)N)C(=O)N[C@@H](CCC(N)=O)C(=O)N[C@@H](CCCNC(=N)N)C(=O)N[C@@H](Cc1ccc(O)cc1)C(N)=O)[C@@H](C)O [Compound 137, Y-Aib-E-G-T-F-T-S-D-Y-S-I-Aib-L-E-K-Q-A-Q-Aib-A-F-V-R-H-L-I-N-K(1,3)-Aib-T-R-Q-R-Y-NH2.C18DA-TRX-gGlu-gGlu-gGlu-gGlu-gGlu-gGlu-eLys(1,2)]
0.3 | – | 5.6 | 9400 | CC[C@H](C)[C@H](NC(=O)[C@H](CC(C)C)NC(=O)[C@H](Cc1c[nH]cn1)NC(=O)[C@H](CCCNC(=N)N)NC(=O)[C@@H](NC(=O)[C@H](Cc1ccccc1)NC(=O)[C@H](C)NC(=O)C(C)(C)NC(=O)[C@H](CCC(N)=O)NC(=O)[C@H](C)NC(=O)[C@H](CCC(N)=O)NC(=O)[C@H](CCCCN)NC(=O)[C@H](CCC(=O)O)NC(=O)[C@H](CC(C)C)NC(=O)C(C)(C)NC(=O)[C@@H](NC(=O)[C@H](CO)NC(=O)[C@H](Cc1ccc(O)cc1)NC(=O)[C@H](CC(=O)O)NC(=O)[C@H](CO)NC(=O)[C@@H](NC(=O)[C@H](Cc1ccccc1)NC(=O)[C@@H](NC(=O)CNC(=O)[C@H](CCC(=O)O)NC(=O)C(C)(C)NC(=O)[C@@H](N)Cc1ccc(O)cc1)[C@@H](C)O)[C@@H](C)O)[C@@H](C)CC)C(C)C)C(=O)N[C@@H](CC(N)=O)C(=O)N[C@@H](CCCCNC(=O)[C@@H](N)CCCCNC(=O)CC[C@H](NC(=O)CC[C@H](NC(=O)CC[C@H](NC(=O)CC[C@H](NC(=O)CC[C@H](NC(=O)CC[C@H](NC(=O)CCCCCCCCCCCCCCCCCCC(=O)O)C(=O)O)C(=O)O)C(=O)O)C(=O)O)C(=O)O)C(=O)O)C(=O)NC(C)(C)C(=O)N[C@H](C(=O)N[C@@H](CCCNC(=N)N)C(=O)N(C)[C@@H](CCC(N)=O)C(=O)N[C@@H](CCCNC(=N)N)C(=O)N[C@@H](Cc1ccc(O)cc1)C(N)=O)[C@@H](C)O [Compound 26, Y-Aib-E-G-T-F-T-S-D-Y-S-I-Aib-L-E-K-Q-A-Q-Aib-A-F-V-R-H-L-I-N-K(1,3)-Aib-T-R-NMeQ-R-Y-NH2.C20DA-gGlu-gGlu-gGlu-gGlu-gGlu-gGlu-eLys(1,2)]
